Literature values, collected in publication PMC4326127, “Collagen Inhibitory Peptide R1R2 Mediates Vascular Remodeling by Decreasing Inflammation and Smooth Muscle Cell Activation” (PLoS ONE, 2015).
“Also recorded” adds a separate entry of the source.

System: FN fibril
Conditions: in vitro; ref [29]; cited from earlier work
Excerpt: Therefore, we used the experimental group treated with scrambled peptide as the control group. In Fig. 3A and 3B, IHC analysi ... || In vitro studies have shown that FN is required as a scaffold for collagen deposition. Inhibiting FN polymerization with antibodies or inhibitors prevents FN and collagen fibril deposition into the ECM in vitro [27, 31].

Sequence: GLNGENQKEPEQGERGEAGPPLSGLSGNNQGRPSLPGLNGENQKEPEQGERGEAGPP [R1R2]
- effect on FN fibril deposition/formation: does not affect FN fibril deposition into the ECM; also recorded: does not alter FN fibril formation
